Reference: article PMC7947852, “Identification and Characterization of Chalcone Isomerase Genes Involved in Flavonoid Production in Dracaena cambodiana” (Frontiers in Plant Science, 2021)

Biological target: T1, DcCHI1 (Dracaena cambodiana, UniProt A0A8A5KFS9)
T1 construct: gene CHI1
T1 sequence (A0A8A5KFS9 1-219): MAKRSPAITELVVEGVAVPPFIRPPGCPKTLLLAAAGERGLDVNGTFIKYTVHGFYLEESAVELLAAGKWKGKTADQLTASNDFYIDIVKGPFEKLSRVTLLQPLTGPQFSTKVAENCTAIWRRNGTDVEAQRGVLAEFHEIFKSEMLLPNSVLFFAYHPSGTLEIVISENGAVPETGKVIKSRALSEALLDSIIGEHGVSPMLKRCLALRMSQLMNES
Experiment: HPLC of reaction product
Type: biochemical
Settings: 100 mM Tris-HCl pH 7.6, 30 °C, 2 min; 5 µl of 5 mM substrate in 200 µl

Compound	HPLC of reaction product
O=C1C[C@@H](c2ccc(O)cc2)Oc2cc(O)cc(O)c21 [naringenin]	recombinant DcCHI1 could catalyze the formation of naringenin with naringenin chalcone as the substrate
O=C(/C=C/c1ccc(O)cc1)c1c(O)cc(O)cc1O [naringenin chalcone]	recombinant DcCHI1 could catalyze the formation of naringenin with naringenin chalcone as the substrate
